From patent US12661410B2, “Compounds for targeted degradation of RET” (C4 Therapeutics, Inc., priority 2020, dated 2026) come the findings set out here.

Read-outs that look alike come from different tables or passages of the source.

For one data set, the system named is phospho-SHC. The data set can be described thus: phospho-SHC protein level in CR^2518 brain tumors (western blot). In kind it is in vivo, mice. The settings on record: single IV dose 5 mg/kg or 30 mg/kg, at 5 hours. As to the method: (§1) For intracranial PDX model CR^2518, tumors were first grown in stock mice, then tumor fragments were harvested and digested for cell suspension preparation. 5×10^5 CR^2518 cells in 4 μl PBS were injected intracranially over 5 min, 2.5 mm intraparenchymally, 2 mm lateral from and 0.5 mm anterior to the bregma for tumor development in female BALB/c nude mice. With the appearance of clinical signs (body weight loss, inactivity), mice were randomized into groups of 3, stratified to result in about equal average body weight, and dosing was initiated on Day 0.
(§2) Compound 122 was formulated in 40% PEG400 and 60% of 10% hydroxypropyl beta cyclodextrin (HPPCD) in double distilled water, which was also used for the vehicle group. […] Tumor volume was measured in two dimensions using calipers, and volume (mm^3) was calculated using the formula: V=0.5 a×b^2 where a and b are the long and short diameters of the tumor in mm, respectively.
(§3) 3 tumors and plasma samples were collected per each time point sampled. For pharmacokinetic analysis, plasma and tumor samples were injected into LC/MS/MS system for quantitative analysis. […] Protein concentration was quantified using a Pierce™ BCA Protein Assay Kit, samples were reduced, and equal protein amounts were then loaded onto a western blot gel for analysis. […]

The nature of data set [1]: Plasma and brain tumor concentration in mice bearing intracranial CR^2518 tumors (LC/MS/MS). In kind it is in vivo. To be noted: female, BALB/c nude, mouse, single IV dose 30 mg/kg, mice bearing CR^2518 brain tumors. As to the method:
as §1, §2, §3

As to `CCC1(C(=O)NC(C)C)CCN(c2ccc(-c3nc(-c4cnn([C@H]5CC[C@H](N6CCC(c7ccc(NC8CCC(=O)NC8=O)cc7F)CC6)CC5)c4)cn4ncc(C#N)c34)cn2)CC1` (single isomer, unassigned) [Compound 122, 1-(5-(3-cyano-6-(1-((1r, 4r)-4-(4-(4-((2,6-dioxopiperidin-3-yl)amino)-2-fluorophenyl)piperidin-1-yl)cyclohexyl)-1H-pyrazol-4-yl)pyrazolo[1,5-a]pyrazin-4-yl)pyridin-2-yl)-4-ethyl-N-isopropylpiperidine-4-carboxamide], the “reduction in phospho-SHC protein levels in brain tumors” value in the data set on phospho-SHC is listed as 75-80%. Also, the concentration at 5 h in data set [1] (brain tumor, read-out: brain tumor concentration) came out at 2840 ng/g; in data set [1] (plasma, read-out: plasma concentration), 1720 ng/mL.
